GI50 and TGI data for 3 compounds are collected here from PubChem BioAssay (NCI).

What all share (experiment): NCI tumour cell line growth inhibition, 48 h
Test [1] relates to PC-3 prostate.
Test [2] relates to DU-145 prostate.
Test [3] relates to T-47D breast.
In test [4] the test system is ACHN renal.
Test [5] concerns CCRF-CEM leukemia.
The test system of test [6] is A549 NSCLC.
Test [7] concerns SR leukemia.
Test [8] relates to M14 melanoma.
Test [9] has as its system OVCAR-8 ovarian.
Test [10] concerns HOP-62 NSCLC.
For test [11], the system named is HCT-116 colon.
The subject of test [12] is UACC-257 melanoma.
Test [13] concerns KM20L2 colon.
Test [14] deals with DMS 273 small cell lung.
Test [15] deals with M19-MEL melanoma.
The test system of test [16] is DLD-1 colon.

Structures are written as SMILES.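 How tested: cells in 96-well plates exposed to compound for 48 hours at five concentrations. Abbreviation: GI50, concentration required for 50% inhibition of growth. At the TGI there is no net growth.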

In the case of `CN1CCN(Cn2nc(-c3cc(F)c(Cl)cc3Cl)oc2=S)CC1`, the GI50 in [1] was 43 µM; in test [2] it was 41.4 µM; in test [4], 34.6 µM; in test [5], 33.4 µM. In addition, the TGI in [1] is > 100 µM; in test [2] it was > 100 µM; in test [3], 27 µM; in test [4] it was > 100 µM; in test [5], > 100 µM.

For the compound `O=c1[nH]c(-c2ccc(Cl)cc2)cc2ccsc12`, the TGI in test [6] was > 100 µM; in test [7], 12.9 µM; in test [8], > 100 µM; in test [9] it was > 100 µM; in test [10] it was > 100 µM; in test [1], > 100 µM. Moreover, the TGI is 6.68 µM in test [2]; 59.9 µM in [3]; > 100 µM in test [4]; > 100 µM in test [11]; 7.87 µM in test [12].

As to `COc1cccc2c1C(=O)c1c(O)c3c(c(O)c1C2=O)CC(O)(C(C)=O)CC3O` (stereo not given), the TGI in [6] is 23.4 µM; in test [9], 10.6 µM; in [13], 48.2 µM; in test [10], 11.3 µM; in test [14] it was 15.6 µM; in test [15], 15.7 µM. Moreover, the TGI in test [11] turned out to be 10.1 µM; in [12], 32.7 µM; in [16], 40.9 µM; in [5] it was 23.2 µM.
